The term IC50 denotes the concentration at which inhibition is half-maximal.

Where only a bound is given, the exact number is not on record here.

The target in one assay is T1, hLBAT (Homo sapiens, UniProt Q14973).
T1 construct: expressed in transfected cells; kept under Geneticin selection
T1 sequence (Q14973 1-349): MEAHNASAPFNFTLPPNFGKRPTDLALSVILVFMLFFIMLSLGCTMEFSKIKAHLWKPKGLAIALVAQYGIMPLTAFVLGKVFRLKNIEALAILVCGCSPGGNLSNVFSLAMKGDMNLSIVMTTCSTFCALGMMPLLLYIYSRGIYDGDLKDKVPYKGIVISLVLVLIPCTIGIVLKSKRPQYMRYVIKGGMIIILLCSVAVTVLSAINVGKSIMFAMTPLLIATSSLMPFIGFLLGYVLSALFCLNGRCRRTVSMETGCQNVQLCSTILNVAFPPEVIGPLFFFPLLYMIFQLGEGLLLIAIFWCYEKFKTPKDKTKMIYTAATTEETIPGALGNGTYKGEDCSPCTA
The experiment in a line: LBAT (h/m) assay: 3H-taurocholic acid uptake in human LBAT-overexpressing cells. The class given is cell-based. As to conditions: 0.3 μM 3H-taurocholic acid + 7.5 μM cold taurocholic acid, 20 minutes at 37° C. On the procedure:
LBAT (h/m) Assay Protocol
20,000 cells (Human or Mouse LBAT-overexpressing cells) were seeded in 96-wells plate (Corning CLS3809) in 100 μL MEM-alpha medium (Gibco 12571-063) supplemented with 10% FBS (Gibco 10438026) containing Geneticin (Gibco 10131-027) (1 mg/mL) and incubated at 37° C. in 5% CO2 for 24 hours. After incubation, media was decanted from the wells and cells were washed two times with 300 μL of basal MEM-alpha medium (FBS-free). After decanting basal MEM-alpha medium each time, plates were tapped against paper towel to ensure maximum removal of residual media. For human LBAT, incubation mix was prepared by adding test inhibitor dilutions (3-fold serial dilution in DMSO (Sigma D2650), 10 points) in MEM-alpha (without FBS) containing 0.3 μM 3H-taurocholic acid (ARC ART-1368) and 7.5 μM cold taurocholic acid (Sigma T4009) (maintaining 0.2% final DMSO concentration). For mouse LBAT, incubation mix was prepared by adding test inhibitor dilutions (3-fold serial dilution in DMSO, 10 points) in MEM-alpha (without FBS) containing 0.3 μM 3H-taurocholic acid and 25 μM cold taurocholic acid maintaining 0.2% final DMSO concentration). 50 μL of incubation mix containing test inhibitors was then added to the wells (in duplicate) and the plates were incubated for 20 minutes in a CO2 incubator at 37° C. After incubation, the reaction was stopped by keeping the plates on ice water mix for 2-3 minutes and then the incubation mix was aspirated completely from the wells. The wells were washed two times with 250 μL of chilled unlabelled 1 mM taurocholic acid dissolved in HEPES (Gibco 15630080)-buffered (10 mM) HBSS (Gibco 14175079) (pH 7.4). The plates were tapped against a paper towel after every wash to ensure maximum removal of blocking buffer.
100 μL of MicroScint-20 (PerkinElmer 6013621) was added to the wells and kept overnight at RT before reading the plates in TopCount NXT™ Microplate Scintillation and Luminescence Counter from PerkinElmer under 3H Test protocol (set at 120 seconds reading time per well, with normal plate orientation).
(§1) Preparation of Test Compound Dilutions
(§2) All test compounds were provided in powder form at RT. 10 mM DMSO stocks of the test compounds were prepared, aliquoted and stored at −20° C. From the 10 mM DMSO stock of the compounds, a 3-fold serial dilution in DMSO was prepared to get a total of 10 dilutions of the test compounds. 0.5 μL of this dilution in DMSO was added to 250 μL of FBS-free basal media containing 3H-taurocholic acid and cold taurocholic acid to prepare the incubation mixture.

In another assay the target is T2, hIBAT (Homo sapiens, UniProt Q12908).
T2 construct: expressed in transfected cells; kept under Puromycin selection
T2 sequence (Q12908 1-348): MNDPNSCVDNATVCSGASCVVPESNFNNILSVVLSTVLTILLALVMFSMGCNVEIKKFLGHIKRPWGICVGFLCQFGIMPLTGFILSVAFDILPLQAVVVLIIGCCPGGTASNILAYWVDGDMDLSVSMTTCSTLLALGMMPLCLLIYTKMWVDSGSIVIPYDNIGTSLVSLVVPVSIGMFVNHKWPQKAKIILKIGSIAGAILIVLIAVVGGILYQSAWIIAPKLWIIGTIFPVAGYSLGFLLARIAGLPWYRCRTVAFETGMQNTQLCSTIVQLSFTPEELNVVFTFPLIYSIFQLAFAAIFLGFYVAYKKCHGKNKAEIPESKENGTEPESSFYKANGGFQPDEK
Kind of assay: IBAT (h/m) assay: 3H-taurocholic acid uptake in human IBAT-overexpressing cells. The class given is cell-based. As to conditions: 0.25 μM 3H-taurocholic acid + 5 μM cold taurocholic acid, 20 minutes at 37° C., highest test concentration 10 μM. On the procedure:
IBAT (h/m) Assay Protocol
10,000 cells (Human or Mouse IBAT-overexpressing cells) were seeded in 96-wells plate (Corning CLS3809) in 200 μL MEM-alpha medium (Gibco 12571-063) supplemented with 10% FBS (Gibco 10438026) containing Puromycin (Gibco A1113803) (10 μg/mL) and incubated at 37° C. in 5% CO2 for 48 hours. After incubation, media was decanted from the wells and cells were washed two times with 300 μL of basal MEM-alpha medium (FBS-free). After decanting basal MEM-alpha medium each time, plates were tapped against paper towel to ensure maximum removal of residual media. Test inhibitor dilutions (highest test concentration being 10 μM, 3-fold serial dilution, 10 points) prepared in DMSO (Sigma D2650) were added in incubation mix (maintaining 0.2% final DMSO concentration) containing 0.25 μM 3H-taurocholic acid (ARC ART-1368) and 5 μM of cold taurocholic acid (Sigma T4009). 50 μL of incubation mix containing test inhibitors was then added to the wells (in duplicate) and the plates were incubated for 20 minutes in a CO2 incubator at 37° C. After incubation, the reaction was stopped by keeping the plates on ice water mix for 2-3 minutes and then the incubation mix was aspirated completely from the wells. The wells were washed two times with 250 μL of chilled unlabelled 1 mM taurocholic acid dissolved in HEPES (Gibco 15630080)-buffered (10 mM) HBSS (Gibco 14175079) (pH 7.4). The plates were tapped against a paper towel after every wash to ensure maximum removal of blocking buffer.
100 μL of MicroScint-20 (PerkinElmer 6013621) was added to the wells and kept overnight at RT before reading the plates in TopCount NXT™ Microplate Scintillation and Luminescence Counter from PerkinElmer under 3H Test protocol (set at 120 seconds reading time per well).
as §1, §2

Turning to `CCCCC1(CC)CN(c2ccccc2)c2cc(SC)c(CSCC(=O)O)cc2S(=O)(=O)C1` (racemic) [Example 1, 2-(((3-butyl-3-ethyl-7-(methylthio)-1,1-dioxido-5-phenyl-2,3,4,5-tetrahydro-1,5-benzothiazepin-8-yl)methyl)thio)acetic acid], at hLBAT, the IC50 came out at 3820 nM. Take `CCCCC1(C)CN(c2ccccc2)c2cc(SC)c(CSCC(=O)O)cc2S(=O)(=O)C1` (racemic) [Example 4, 2-(((3-butyl-3-methyl-7-(methylthio)-1,1-dioxido-5-phenyl-2,3,4,5-tetrahydro-1,5-benzothiazepin-8-yl)methyl)thio)acetic acid]: the IC50 was determined as 0.8 nM on hIBAT and 7260 nM at hLBAT.

Take `CCCCC1(CC)CN(c2ccc(F)cc2)c2cc(SC)c(CSCC(=O)O)cc2S(=O)(=O)C1` (racemic) [Example 6, 2-(((3-butyl-3-ethyl-5-(4-fluorophenyl)-7-(methylthio)-1,1-dioxido-2,3,4,5-tetrahydro-1,5-benzothiazepin-8-yl)methyl)thio)acetic acid]: the IC50 on hIBAT is 0.6 nM; on hLBAT, over 2200 nM.

For the compound `CCCCC1(CC)CN(c2ccccc2)c2cc(SC)c(CSCC(=O)O)cc2S(=O)(=O)N1` (racemic) [Example 9, 2-(((3-butyl-3-ethyl-7-(methylthio)-1,1-dioxido-5-phenyl-2,3,4,5-tetrahydro-1,2,5-benzothiadiazepin-8-yl)methyl)thio)acetic acid], the IC50 on hIBAT is 0.5 nM; on hLBAT, over 3330 nM.

Take `CCCCC1CN(c2ccccc2)c2cc(SC)c(CSCC(=O)O)cc2S(=O)(=O)N1C` (racemic) [Example 11, 2-(((3-butyl-2-methyl-7-(methylthio)-1,1-dioxido-5-phenyl-2,3,4,5-tetrahydro-1,2,5-benzothiadiazepin-8-yl)methyl)thio)acetic acid]: the IC50 at hIBAT amounted to 70 nM; at hLBAT, 34 nM. Consider `CCCCC1(CC)CN(c2ccccc2)c2cc(OC)c(CSCC(=O)O)cc2S(=O)(=O)C1` (racemic) [Example 13, 2-(((3-Butyl-3-ethyl-7-methoxy-1,1-dioxido-5-phenyl-2,3,4,5-tetrahydro-1,5-benzothiazepin-8-yl)methyl)thio)acetic acid], for which the IC50 at hIBAT was found to be 2.3 nM.

In the case of `CCCCC1(CC)CN(c2ccc(F)cc2)c2cc(SC)c(CSC(C)(C)C(=O)O)cc2S(=O)(=O)C1` (racemic) [Example 15, 2-(((3-Butyl-3-ethyl-5-(4-fluorophenyl)-7-(methylthio)-1,1-dioxido-2,3,4,5-tetrahydro-1,5-benzothiazepin-8-yl)methyl)thio)-2-methylpropanoic acid], the IC50 on hIBAT is 60 nM; at hLBAT, 176 nM.

With `CCCCC1(C)CN(c2ccccc2)c2cc(SC)c(CSC(C)(C)C(=O)O)cc2S(=O)(=O)C1` (racemic) [Example 18, 2-(((3-Butyl-3-methyl-7-(methylthio)-1,1-dioxido-5-phenyl-2,3,4,5-tetrahydro-1,5-benzothiazepin-8-yl)methyl)thio)-2-methylpropanoic acid], the IC50 on hIBAT is 404 nM; at hLBAT, 135 nM. The matching figures for `CCCCC1(CC)CN(c2ccccc2)c2cc(OC)c(CSC(C)(C)C(=O)O)cc2S(=O)(=O)C1` (racemic) [Example 25, 2-(((3-butyl-3-ethyl-7-methoxy-1,1-dioxido-5-phenyl-2,3,4,5-tetrahydro-1,5-benzothiazepin-8-yl)methyl)thio)-2-methylpropanoic acid]: 217 nM and 135 nM. For the compound `CCCCC1(C)CN(c2ccccc2)c2cc(OC)c(CSCC(=O)O)cc2S(=O)(=O)C1` (racemic) [Example 27, 2-(((3-butyl-7-methoxy-3-methyl-1,1-dioxido-5-phenyl-2,3,4,5-tetrahydro-1,5-benzothiazepin-8-yl)methyl)thio)acetic acid], the IC50 on hIBAT is 14 nM; at hLBAT it was over 10000 nM. On the same counts, the results for `CCCCC1CN(c2ccc(F)cc2)c2cc(OC)c(CSCC(=O)O)cc2S(=O)(=O)N1C` (racemic) [Example 29, 2-(((3-butyl-5-(4-fluorophenyl)-7-methoxy-2-methyl-1,1-dioxido-2,3,4,5-tetrahydro-1,2,5-benzothiadiazepin-8-yl)methyl)thio)acetic acid] are 558 nM and 107 nM. As to `CCCCC1(CC)CN(c2ccc(F)cc2)c2cc(OC)c(CSC(C)(C)C(=O)O)cc2S(=O)(=O)C1` (racemic) [Example 33, 2-(((3-butyl-3-ethyl-5-(4-fluorophenyl)-7-methoxy-1,1-dioxido-2,3,4,5-tetrahydro-1,5-benzothiazepin-8-yl)methyl)thio)-2-methylpropanoic acid], the IC50 on hIBAT came to 295 nM; at hLBAT it was 150 nM. The matching figures for `CCCCC1CN(c2ccccc2)c2cc(OC)c(CSCC(=O)O)cc2S(=O)(=O)N1C` (racemic) [Example 35, 2-(((3-butyl-7-methoxy-2-methyl-1,1-dioxido-5-phenyl-2,3,4,5-tetrahydro-1,2,5-benzothiadiazepin-8-yl)methyl)thio)acetic acid]: 3110 nM and 362 nM.

With `CCCCC1CN(c2ccccc2)c2cc(OC)c(CSC(C)(C)C(=O)O)cc2S(=O)(=O)N1C` (racemic) [Example 37, 2-(((3-butyl-7-methoxy-2-methyl-1,1-dioxido-5-phenyl-2,3,4,5-tetrahydro-1,2,5-benzothiadiazepin-8-yl)methyl)thio)-2-methylpropanoic acid], the IC50 on hIBAT was over 10000 nM; at hLBAT, 21 nM. Turning to `CCCCC1(CC)CN(c2ccccc2)c2cc(SC)c(CSCC(=O)O)cc2S(=O)(=O)N1` (single isomer, unassigned) [10, enantiomer 2], the IC50 at hIBAT came to 1.7 nM. Regarding `CCCCC1(CC)CN(c2ccccc2)c2cc(OC)c(CSCC(=O)O)cc2S(=O)(=O)N1` (single isomer, unassigned) [45, enantiomer 2], the IC50 at hIBAT came out at 3.2 nM.

The values are drawn from patent US20240067617A1 (Albireo AB, priority 2022, published 2024).
